Each block holds one molecule with its values, some of them ahead of it. Activity calls are given as the source filed them. No cut-off for these calls is given here.
How the values were obtained:
Autotaxin [1] = biological target: T1, Autotaxin (Homo sapiens, UniProt Q13822); assay: Inhibition of human ATX in using LPC as substrate by fluorescence based microplate reader assay
LX-2 [2] = assay: Anti-hepatic fibrosis activity against TGF-beta1 stimulated human LX2 cells assessed as reduction in COL1A1 mRNA expression level at 5 to 20 uM incubated for 48 hrs by quantitative real-time PCR analysis; assay type: functional, cell-based; details: dose 5-20 µM
LX-2 [3] = assay: Effect on total Smad3 level in TGF-beta1 stimulated human LX2 cells at 5 to 20 uM incubated for 48 hrs by Western blotting analysis; assay type: functional, cell-based; details: dose 5-20 µM
LX-2 [4] = assay: Anti-hepatic fibrosis activity against TGF-beta1 stimulated human LX2 cells assessed as reduction in alpha-SMA mRNA expression level at 5 to 20 uM incubated for 48 hrs by quantitative real-time PCR analysis; assay type: functional, cell-based; details: dose 5-20 µM
CCC-HPF-1 [5] = assay: Effect on total Smad2 level in TGF-beta1 stimulated human CCC-HPF-1 cells at 5 to 20 uM incubated for 48 hrs by Western blotting analysis; assay type: functional, cell-based; details: dose 5-20 µM
CCC-HPF-1 [6] = assay: Anti-migratory activity against TGF-beta1 stimulated human CCC-HPF-1 cells at 10 uM incubated for 24 hrs by light microscopic analysis; assay type: functional, cell-based
LX-2 [7] = assay: Cytotoxicity against human LX2 cells assessed as reduction in cell viability at 2.5 to 80 uM incubated for 48 hrs by MTT assay; assay type: toxicity, cell-based; details: lx-2, 48 h, dose 2.5-80 µM
CCC-HPF-1 [8] = assay: Anti-pulmonary fibrosis activity against TGF-beta1 stimulated human CCC-HPF-1 cells assessed as reduction in FN protein expression level at 5 to 20 uM incubated for 48 hrs by Western blotting analysis; assay type: functional, cell-based; details: dose 5-20 µM
CCC-HPF-1 [9] = assay: Anti-pulmonary fibrosis activity against TGF-beta1 stimulated human CCC-HPF-1 cells assessed as reduction in Smad2 phosphorylation incubated for 48 hrs by Western blotting analysis; assay type: functional, cell-based; details: dose 5-20 µM
CCC-HPF-1 [10] = assay: Anti-pulmonary fibrosis activity against TGF-beta1 stimulated human CCC-HPF-1 cells assessed as reduction in COL1A1 protein expression level at 5 to 20 uM incubated for 48 hrs by Western blotting analysis; assay type: functional, cell-based; details: dose 5-20 µM
LX-2 [11] = assay: Anti-hepatic fibrosis activity against TGF-beta1 stimulated human LX2 cells assessed as reduction in COL1A1 protein expression level at 5 to 20 uM incubated for 48 hrs by Western blotting analysis; assay type: functional, cell-based; details: dose 5-20 µM
LX-2 [12] = assay: Effect on total Smad2 level in TGF-beta1 stimulated human LX2 cells at 5 to 20 uM incubated for 48 hrs by Western blotting analysis; assay type: functional, cell-based; details: dose 5-20 µM
LX-2 [13] = assay: Anti-hepatic fibrosis activity against TGF-beta1 stimulated human LX2 cells assessed as reduction in alpha-SMA protein expression level at 5 to 20 uM incubated for 48 hrs by Western blotting analysis; assay type: functional, cell-based; details: dose 5-20 µM
CCC-HPF-1 [14] = assay: Cytotoxicity against human CCC-HPF-1 cells assessed as reduction in cell viability at 2.5 to 80 uM incubated for 48 hrs by MTT assay; assay type: toxicity, cell-based; details: ccc-hpf-1, 48 h, dose 2.5-80 µM
CCC-HPF-1 [15] = assay: Anti-pulmonary fibrosis activity against TGF-beta1 stimulated human CCC-HPF-1 cells assessed as reduction in Smad3 phosphorylation incubated for 48 hrs by Western blotting analysis; assay type: functional, cell-based; details: dose 5-20 µM
CCC-HPF-1 [16] = assay: Anti-pulmonary fibrosis activity against TGF-beta1 stimulated human CCC-HPF-1 cells assessed as inhibition of Smad2/3 nuclear translocation at 10 uM incubated for 48 hrs by DAPI staining based immunofluorescence analysis; assay type: functional, cell-based
CCC-HPF-1 [17] = assay: Anti-pulmonary fibrosis activity against TGF-beta1 stimulated human CCC-HPF-1 cells assessed as reduction in COL1A1 mRNA expression level at 5 to 20 uM incubated for 48 hrs by quantitative real-time PCR analysis; assay type: functional, cell-based; details: dose 5-20 µM
LX-2 [18] = assay: Anti-hepatic fibrosis activity against TGF-beta1 stimulated human LX2 cells assessed as reduction in Smad2 phosphorylation incubated for 48 hrs by Western blotting analysis; assay type: functional, cell-based; details: dose 5-20 µM
LX-2 [19] = assay: Anti-hepatic fibrosis activity against TGF-beta1 stimulated human LX2 cells assessed as reduction in FN protein expression level at 5 to 20 uM incubated for 48 hrs by Western blotting analysis; assay type: functional, cell-based; details: dose 5-20 µM
CCC-HPF-1 [20] = assay: Effect on total Smad3 level in TGF-beta1 stimulated human CCC-HPF-1 cells at 5 to 20 uM incubated for 48 hrs by Western blotting analysis; assay type: functional, cell-based; details: dose 5-20 µM
CCC-HPF-1 [21] = assay: Anti-pulmonary fibrosis activity against TGF-beta1 stimulated human CCC-HPF-1 cells assessed as reduction in alpha-SMA protein expression level at 5 to 20 uM incubated for 48 hrs by Western blotting analysis; assay type: functional, cell-based; details: dose 5-20 µM
LX-2 [22] = assay: Anti-hepatic fibrosis activity against TGF-beta1 stimulated human LX2 cells assessed as inhibition of Smad2/3 nuclear translocation at 10 uM incubated for 48 hrs by DAPI staining based immunofluorescence analysis; assay type: functional, cell-based
LX-2 [23] = assay: Anti-hepatic fibrosis activity against TGF-beta1 stimulated human LX2 cells assessed as reduction in Smad3 phosphorylation incubated for 48 hrs by Western blotting analysis; assay type: functional, cell-based; details: dose 5-20 µM
CCC-HPF-1 [24] = assay: Anti-pulmonary fibrosis activity against TGF-beta1 stimulated human CCC-HPF-1 cells assessed as reduction in FN mRNA expression level at 5 to 20 uM incubated for 48 hrs by quantitative real-time PCR analysis; assay type: functional, cell-based; details: dose 5-20 µM
LX-2 [25] = assay: Anti-hepatic fibrosis activity against TGF-beta1 stimulated human LX2 cells assessed as reduction in FN mRNA expression level at 5 to 20 uM incubated for 48 hrs by quantitative real-time PCR analysis; assay type: functional, cell-based; details: dose 5-20 µM
Autotaxin [26] = biological target: T1, Autotaxin; assay: Potency index, ratio of GLPG-1690 IC50 to test compound IC50 for inhibition of human ATX in using LPC as substrate by fluorescence based microplate reader assay
CCC-HPF-1 [27] = assay: Anti-pulmonary fibrosis activity against TGF-beta1 stimulated human CCC-HPF-1 cells assessed as reduction in alpha-SMA mRNA expression level at 5 to 20 uM incubated for 48 hrs by quantitative real-time PCR analysis; assay type: functional, cell-based; details: dose 5-20 µM
LX-2 [28] = assay: Anti-migratory activity against TGF-beta1 stimulated human LX2 cells at 10 uM incubated for 24 hrs by light microscopic analysis; assay type: functional, cell-based

SMILES: C[C@H](CCC(=O)N1CCc2nc(NCCc3ccc(F)cc3)ncc2C1)[C@H]1CC[C@H]2[C@@H]3[C@@H](O)C[C@@H]4C[C@H](O)CC[C@]4(C)[C@H]3CC[C@]12C
- IC50 (Autotaxin [1]): 91.7 nM

SMILES: C[C@H](CCC(=O)N1CCc2nc(NCCc3cccc(Cl)c3)ncc2C1)[C@H]1CC[C@H]2[C@@H]3[C@@H](O)C[C@@H]4C[C@H](O)CC[C@]4(C)[C@H]3CC[C@]12C
- IC50 (Autotaxin [1]): 165 nM

SMILES: C[C@H](CCC(=O)N1CCc2nc(NCCc3ccccc3Cl)ncc2C1)[C@H]1CC[C@H]2[C@@H]3[C@@H](O)C[C@@H]4C[C@H](O)CC[C@]4(C)[C@H]3CC[C@]12C
- IC50 (Autotaxin [1]): 102 nM

SMILES: C[C@H](CCC(=O)N1CCc2nc(NCc3cc(Cl)cc(Cl)c3)ncc2C1)[C@H]1CC[C@H]2[C@@H]3[C@@H](O)C[C@@H]4C[C@H](O)CC[C@]4(C)[C@H]3CC[C@]12C
- IC50 (Autotaxin [1]): 40.2 nM

SMILES: C[C@H](CCC(=O)N1CCc2nc(NCCc3ccc(Br)cc3)ncc2C1)[C@H]1CC[C@H]2[C@@H]3[C@@H](O)C[C@@H]4C[C@H](O)CC[C@]4(C)[C@H]3CC[C@]12C
- IC50 (Autotaxin [1]): 46.3 nM

SMILES: Cc1ccc(CCNc2ncc3c(n2)CCN(C(=O)CC[C@@H](C)[C@H]2CC[C@H]4[C@@H]5[C@@H](O)C[C@@H]6C[C@H](O)CC[C@]6(C)[C@H]5CC[C@]24C)C3)cc1
- IC50 (Autotaxin [1]): 168 nM

SMILES: C[C@H](CCC(=O)N1CCc2nc(NCc3ccc(Br)cc3)ncc2C1)[C@H]1CC[C@H]2[C@@H]3[C@@H](O)C[C@@H]4C[C@H](O)CC[C@]4(C)[C@H]3CC[C@]12C
- IC50 (Autotaxin [1]): 243 nM

SMILES: C[C@H](CCC(=O)N1Cc2cnc(NC3Cc4ccccc4C3)nc2C1)[C@H]1CC[C@H]2[C@@H]3[C@@H](O)C[C@@H]4C[C@H](O)CC[C@]4(C)[C@H]3CC[C@]12C
- IC50 (Autotaxin [1]): 438 nM

Now those with a lower IC50 (Autotaxin [1]), led by results:

- IC50 (Autotaxin [1]): 7.62 nM
- Ratio IC50 (Autotaxin [26]): 9
SMILES: C[C@H](CCC(=O)N1CCc2nc(NC3Cc4ccccc4C3)ncc2C1)[C@H]1CC[C@H]2[C@@H]3[C@@H](O)C[C@@H]4C[C@H](O)CC[C@]4(C)[C@H]3CC[C@]12C
- Activity (LX-2 [2]): Active
- Activity (LX-2 [3]): inactive
- Activity (LX-2 [4]): Active
- Activity (CCC-HPF-1 [5]): inactive
- Activity (CCC-HPF-1 [6]): Active
- Activity (LX-2 [7]): Non-Toxic
- Activity (CCC-HPF-1 [8]): Active
- Activity (CCC-HPF-1 [9]): Dose-Dependent Effect
- Activity (CCC-HPF-1 [10]): Active
- Activity (LX-2 [11]): Active
- Activity (LX-2 [12]): inactive
- Activity (LX-2 [13]): Active
- Activity (CCC-HPF-1 [14]): Non-Toxic
- Activity (CCC-HPF-1 [15]): Dose-Dependent Effect
- Activity (CCC-HPF-1 [16]): Active
- Activity (CCC-HPF-1 [17]): Active
- Activity (LX-2 [18]): Dose-Dependent Effect
- Activity (LX-2 [19]): Active
- Activity (CCC-HPF-1 [20]): inactive
- Activity (CCC-HPF-1 [21]): Active
- Activity (LX-2 [22]): Active
- Activity (LX-2 [23]): Dose-Dependent Effect
- Activity (CCC-HPF-1 [24]): Active
- Activity (LX-2 [25]): Active
- Activity (CCC-HPF-1 [27]): Active
- Activity (LX-2 [28]): Active

- IC50 (Autotaxin [1]): 35.6 nM
SMILES: C[C@H](CCC(=O)N1CCc2nc(NCCc3ccncc3)ncc2C1)[C@H]1CC[C@H]2[C@@H]3[C@@H](O)C[C@@H]4C[C@H](O)CC[C@]4(C)[C@H]3CC[C@]12C

- IC50 (Autotaxin [1]): 27.7 nM
SMILES: C[C@H](CCC(=O)N1CCc2nc(NCCc3cccc(Br)c3)ncc2C1)[C@H]1CC[C@H]2[C@@H]3[C@@H](O)C[C@@H]4C[C@H](O)CC[C@]4(C)[C@H]3CC[C@]12C
